Source: patent publication US20260138961A1, “MODULATORS OF MITOCHONDRIAL DNA REPLICATION” (Pretzel Therapeutics, Inc., priority 2022, published 2026)

Target: T1, wild type human POLγ (POLγA:WT) (Homo sapiens, UniProt P54098)
T1 sequence (P54098 1-1239): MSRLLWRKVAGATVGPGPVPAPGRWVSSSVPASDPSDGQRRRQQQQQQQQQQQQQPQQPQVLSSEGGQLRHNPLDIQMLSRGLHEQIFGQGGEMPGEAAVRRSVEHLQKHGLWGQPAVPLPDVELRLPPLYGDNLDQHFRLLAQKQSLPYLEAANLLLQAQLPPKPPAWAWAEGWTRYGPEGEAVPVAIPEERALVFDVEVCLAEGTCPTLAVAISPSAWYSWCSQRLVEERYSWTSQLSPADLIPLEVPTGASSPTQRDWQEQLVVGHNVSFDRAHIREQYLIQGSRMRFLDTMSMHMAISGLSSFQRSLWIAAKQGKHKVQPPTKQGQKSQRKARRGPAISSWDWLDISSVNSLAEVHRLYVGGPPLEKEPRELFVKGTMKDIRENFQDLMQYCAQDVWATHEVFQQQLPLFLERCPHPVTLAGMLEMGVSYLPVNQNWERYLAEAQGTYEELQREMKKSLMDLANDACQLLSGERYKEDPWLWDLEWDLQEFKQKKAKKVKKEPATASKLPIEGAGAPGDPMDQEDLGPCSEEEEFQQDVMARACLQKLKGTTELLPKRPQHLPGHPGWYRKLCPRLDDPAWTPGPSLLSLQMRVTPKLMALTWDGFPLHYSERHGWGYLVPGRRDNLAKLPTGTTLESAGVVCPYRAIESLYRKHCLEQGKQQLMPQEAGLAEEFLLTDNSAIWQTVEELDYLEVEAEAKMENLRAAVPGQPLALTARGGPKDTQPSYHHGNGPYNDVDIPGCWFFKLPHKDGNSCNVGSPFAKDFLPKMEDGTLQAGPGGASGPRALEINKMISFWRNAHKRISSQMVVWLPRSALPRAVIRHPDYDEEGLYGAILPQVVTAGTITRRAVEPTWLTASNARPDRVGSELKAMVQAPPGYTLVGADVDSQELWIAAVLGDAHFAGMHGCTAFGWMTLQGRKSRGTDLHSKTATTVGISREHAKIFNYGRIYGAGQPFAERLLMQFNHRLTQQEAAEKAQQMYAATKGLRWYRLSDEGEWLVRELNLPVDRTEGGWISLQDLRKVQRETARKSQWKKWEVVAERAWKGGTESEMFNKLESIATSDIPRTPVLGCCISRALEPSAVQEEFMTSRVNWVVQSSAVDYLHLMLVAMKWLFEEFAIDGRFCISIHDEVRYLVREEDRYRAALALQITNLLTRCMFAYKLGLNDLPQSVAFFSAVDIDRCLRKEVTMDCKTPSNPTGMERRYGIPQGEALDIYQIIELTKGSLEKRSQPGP
T1 sequence (Q9UHN1 1-485 partner): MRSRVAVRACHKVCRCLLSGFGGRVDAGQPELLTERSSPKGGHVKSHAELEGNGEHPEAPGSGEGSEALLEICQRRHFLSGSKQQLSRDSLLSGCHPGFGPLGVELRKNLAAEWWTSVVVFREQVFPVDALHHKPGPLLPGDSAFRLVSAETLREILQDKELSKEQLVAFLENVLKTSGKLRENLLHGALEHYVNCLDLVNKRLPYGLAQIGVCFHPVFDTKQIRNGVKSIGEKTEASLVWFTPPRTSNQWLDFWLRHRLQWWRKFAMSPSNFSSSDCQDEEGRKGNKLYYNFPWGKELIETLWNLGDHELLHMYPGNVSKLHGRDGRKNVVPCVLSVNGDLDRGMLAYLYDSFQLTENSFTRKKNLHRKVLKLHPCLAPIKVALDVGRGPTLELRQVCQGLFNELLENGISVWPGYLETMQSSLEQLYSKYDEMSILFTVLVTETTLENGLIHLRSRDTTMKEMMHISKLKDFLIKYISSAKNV
Experiment: DNA polymerization assay, wild type POLγ
Assay type: biochemical
Settings: 0.1 μM dNTP, read-out: WT AC50 (μM) at 0.1 μM
Description: DNA Polymerization Assay to Monitor Effects on Human Wildtype POLγ and Four Disease-Causing Mutant Variants of Human POLγ.
The ability of small molecules to stimulate the polymerase activity of POLγ was analyzed in a quantitative fluorescence SYBR Green I assay with fluorescence intensity (FI) readout.
In the presence of dNTPs, wild type human POLγ and mutant derivatives thereof were incubated with single-stranded, circular M13mp18 ssDNA hybridized to a short DNA oligonucleotide that functions as a primer for initiation of DNA synthesis. POLγ and mutant derivatives thereof will extend the primer and use the M13mp18 molecule as a template to synthesize long stretches of double-stranded DNA. SYBR Green I, which is a double-stranded DNA-binding dye, was used to quantify formation of double-stranded DNA in the reaction. When bound to double-stranded DNA, SYBR Green I fluorescence increases by up to 100-fold.
The assay was performed in the 384-well plate format. Upon addition of compounds, changes in double-stranded DNA synthesis activity can be monitored by following effects on fluorescent intensity.
The reactions also contained the accessory POLγB subunit, and the human mitochondrial single-stranded DNA binding protein (mtSSB).
The DNA template mixture used in the assay contained 0.5 nM primed M13 mp18 ssDNA, 400 nM mtSSB, 0.1 mM Tris-HCl (pH 8.0), 0.1 mM dNTP, 10 mM MgCl2, 0.1 mg/mL BSA, 1 mM TCEP solution, and 0.02% Triton X-100. The DNA template mixture for the wild type protein contained either 100 μM dNTP, 1 μM dNTP, or 0.1 μM dNTP, designated in Table 2 as 100 μM, 1 μM, and 0.1 μM, respectfully.
Microplates with compounds (0.1 μL in each well) to be tested in the assay were prepared from 10 mM compound stocks in 100% DMSO, and equal amounts of DMSO without any compound were added to positive and negative control wells.
The protein mixture was dispensed (5 μL into each well) into compound plates and incubated at 37° C. for 15 minutes. After incubation, 5 μL of the DNA template mixture was dispensed into each well. The plates were then incubated at 37° C. for 2 hours.
During incubation, a combined stop buffer and detection reagent solution was prepared. The buffer contained 25 mM EDTA (pH 8.0), 0.02% Triton X-100, and SYBR Green I [Invitrogen] diluted 10,000× (for fluorescent readout). EDTA will stop the enzymatic reaction by chelating magnesium ions.

| AC50 [µM] | SMILES |
| --- | --- |
| 5 | Cc1cnc(-c2ccc(Cl)c(NS(=O)(=O)c3cc(C)c(Cl)cc3C)c2)s1 [Example 102, 4-chloro-N-(2-chloro-5-(5-methylthiazol-2-yl)phenyl)-2,5-dimethylbenzenesulfonamide] |

Same assay, conditions: 100 μM dNTP, read-out: WT AC50 (μM) at 100 μM

| SMILES | AC50 [µM] |
| --- | --- |
| Cc1cc(S(=O)(=O)Nc2cccc(C(=O)N3CCCC[C@H]3C)c2)c(C)cc1Cl [Example 9, (R)-4-chloro-2,5-dimethyl-N-(3-(2-methylpiperidine-1-carbonyl)phenyl)benzenesulfonamide] | 2 |
| Cc1cc(S(=O)(=O)Nc2cccc(-c3nccs3)c2)c(C)cc1Cl [Example 16, 4-chloro-2,5-dimethyl-N-(3-(thiazol-2-yl)phenyl)benzenesulfonamide] | 0.2 |
| CNC(=O)c1cnc(-c2cccc(NS(=O)(=O)c3cc(C)c(Cl)cc3C)c2)s1 [Example 93, 2-(3-((4-chloro-2,5-dimethylphenyl)sulfonamido)phenyl)-N-methylthiazole-5-carboxamide] | 3 |
| Cc1cc(S(=O)(=O)Nc2cccc(-c3ccn(C)n3)c2)c(C)cc1Cl [Example 18, 4-chloro-2,5-dimethyl-N-(3-(1-methyl-1H-pyrazol-3-yl)phenyl)benzenesulfonamide] | 1 |
| Cc1cc(S(=O)(=O)Nc2cccc(C(=O)N3CCC[C@H]3C)c2)c(C)cc1Cl [Example 10, (R)-4-chloro-2,5-dimethyl-N-(3-(2-methylpyrrolidine-1-carbonyl)phenyl)benzenesulfonamide] | 0.5 |
| Cc1cc(S(=O)(=O)Nc2cccc(C(=O)NCc3ccccc3)c2)c(C)cc1Cl [Example 11, N-benzyl-3-((4-chloro-2,5-dimethylphenyl)sulfonamido)benzamide] | 29 |
| Cc1ccc(C)c(S(=O)(=O)Nc2cccc(C(=O)N3CCCC[C@H]3C)c2)c1 [Example 5, (R)-2,5-dimethyl-N-(3-(2-methylpiperidine-1-carbonyl)phenyl)benzenesulfonamide] | 5 |
| Cc1cc(S(=O)(=O)Nc2cccc(-c3ncco3)c2)c(C)cc1Cl [Example 17, 4-chloro-2,5-dimethyl-N-(3-(oxazol-2-yl)phenyl)benzenesulfonamide] | 0.6 |
| Cc1ccc(C)c(S(=O)(=O)Nc2cccc(C(=O)N3CCCCC3)c2)c1 [Example 3, 2,5-dimethyl-N-(3-(piperidine-1-carbonyl)phenyl)benzene sulfonamide] | > 100 |
| Cc1cc(S(=O)(=O)Nc2cccc(C(=O)N(C)C)c2)c(C)cc1Cl [Example 12, 3-((4-chloro-2,5-dimethylphenyl)sulfonamido)-N,N-dimethylbenzamide] | 5 |
| Cc1ccc(C)c(S(=O)(=O)Nc2cccc(C(=O)N[C@@H](C)C3CC3)c2)c1 [Example 8, (S)-N-(1-cyclopropylethyl)-3-((2,5-dimethylphenyl)sulfonamido)benzamide] | 5 |

Next, values leading:

| AC50 [µM] | SMILES |
| --- | --- |
| > 10 | Cc1cc(S(=O)(=O)Nc2cccc(-c3ncc(C#N)s3)c2)c(C)cc1Cl [Example 96, 4-chloro-N-(3-(5-cyanothiazol-2-yl)phenyl)-2,5-dimethylbenzenesulfonamide] |
| 0.8 | Cc1cc(S(=O)(=O)Nc2csc(-c3ccccc3)n2)c(Cl)cc1F [Example 136, 2-chloro-4-fluoro-5-methyl-N-(2-phenylthiazol-4-yl)benzenesulfonamide] |
| > 10 | Cc1cc(S(=O)(=O)Nc2nc(-c3ccccc3)no2)c(C)cc1Cl [Example 143, 4-chloro-2,5-dimethyl-N-(3-phenyl-1,2,4-oxadiazol-5-yl)benzenesulfonamide] |
| > 10 | O=S(=O)(Nc1csc(-c2ccccc2)n1)c1ccccc1Cl [Example 125, 2-chloro-N-(2-phenylthiazol-4-yl)benzenesulfonamide] |
| > 10 | Cc1cc(Cl)ccc1S(=O)(=O)Nc1cccc(C(=O)N2CCC[C@H]2C)c1 [Example 116, (R)-4-chloro-2-methyl-N-(3-(2-methylpyrrolidine-1-carbonyl)phenyl)benzenesulfonamide] |
| > 10 | O=S(=O)(Nc1csc(-c2ccccc2)n1)c1cccc(C(F)(F)F)c1 [Example 151, N-(2-phenylthiazol-4-yl)-3-(trifluoromethyl)benzenesulfonamide] |
| > 10 | Cc1cnc(-c2ccc(C)c(NS(=O)(=O)c3cc(C)c(Cl)cc3C)c2)s1 [Example 98, 4-chloro-2,5-dimethyl-N-(2-methyl-5-(5-methylthiazol-2-yl)phenyl)benzenesulfonamide] |
| > 10 | Cc1cnc(-c2ccc(Cl)c(NS(=O)(=O)c3cc(C)c(Cl)cc3C)c2)s1 [Example 102, 4-chloro-N-(2-chloro-5-(5-methylthiazol-2-yl)phenyl)-2,5-dimethylbenzenesulfonamide] |
| > 100 | Cc1cc(S(=O)(=O)Nc2cccc(C(=O)N(C)c3ccccn3)c2)c(C)cc1Cl [Example 109, 3-((4-chloro-2,5-dimethylphenyl)sulfonamido)-N-methyl-N-(pyridin-2-yl)benzamide] |
| 3 | Cc1cnc(-c2cc(NS(=O)(=O)c3cc(C)c(Cl)cc3C)ccc2Cl)s1 [Example 111, 4-chloro-N-(4-chloro-3-(5-methylthiazol-2-yl)phenyl)-2,5-dimethylbenzenesulfonamide] |
| 32 | Cc1cc(S(=O)(=O)Nc2cccc(C(=O)N3CCCOC(C)(C)C3)c2)c(C)cc1Cl [Example 106, 4-chloro-N-(3-(2,2-dimethyl-1,4-oxazepane-4-carbonyl)phenyl)-2,5-dimethylbenzenesulfonamide] |
| > 100 | Cc1cc(NS(=O)(=O)c2cc(C)c(Cl)cc2C)cc(-c2ncc(C)s2)c1 [Example 110, 4-chloro-2,5-dimethyl-N-(3-methyl-5-(5-methylthiazol-2-yl)phenyl)benzenesulfonamide] |
| 6 | Cc1cc(S(=O)(=O)Nc2ccc3c(c2)CC(=O)N3)c(C)cc1Cl [Example 185, 4-chloro-2,5-dimethyl-N-(2-oxoindolin-5-yl)benzenesulfonamide] |

Same assay, conditions: WT AC50 (μM) at 100 μM, 100 μM dNTP

| AC50 [µM] | SMILES |
| --- | --- |
| > 10 | Cc1cc(S(=O)(=O)Nc2noc(-c3ccccc3)n2)c(C)cc1Cl [Example 142, 4-chloro-2,5-dimethyl-N-(5-phenyl-1,2,4-oxadiazol-3-yl)benzenesulfonamide] |
